{"source": "patent US20070167495A1", "about": "“Pleuromutilin derivatives, process for their preparation and uses thereof” (GLAXO[…] UNLIMITED, priority 2003, published 2007)", "key": {"[1]": {"test_system": "Staphylococccus aureus Oxford", "experiment": "Antibacterial activity, MIC against Staphylococccus aureus Oxford", "format": "cell-based, Staphylococcus aureus"}, "[2]": {"test_system": "Streptococcus pneumoniae 1629", "experiment": "Antibacterial activity, MIC against Streptococcus pneumoniae 1629", "format": "cell-based"}, "[3]": {"details": "literature background (Egger and Reinshagen, J. Antibiotics 1976); cited from earlier work"}}}
{"compound": "C=C[C@]1(C)C[C@@H](OC(=O)CSc2ccccc2C(=O)O)[C@]2(C)[C@H](C)CC[C@]3(CCC(=O)[C@H]32)[C@@H](C)[C@@H]1O", "note": "[(2-carboxylato-phenylsulfanyl)-acetic acid mutilin 14-ester]", "values": [{"measurement": "MIC", "setting": "[1]", "value": "0.5 micrograms per millillitre"}, {"measurement": "MIC", "setting": "[2]", "value": "8 micrograms per millillitre"}, {"measurement": "antibacterial activity", "setting": "[3]", "value": "inferior in activity even to the parent substance pleuromutilin"}]}
{"compound": "C=C[C@]1(C)C[C@@H](O)[C@]2(C)[C@H](C)CC[C@]3(CCC(=O)[C@H]32)[C@@H](C)[C@@H]1O", "note": "[Mutilin]", "values": [{"measurement": "antibacterial activity", "setting": "[3]", "value": "inactive"}]}
{"compound": "C=C[C@]1(C)C[C@@H](OC(=O)CO)[C@]2(C)[C@H](C)CC[C@]3(CCC(=O)[C@H]32)[C@@H](C)[C@@H]1O", "note": "[Pleuromutilin]", "values": [{"measurement": "antibacterial activity", "setting": "[3]", "value": "modest antibacterial activity"}]}
{"compound": "(4-Carboxylato-phenylsulfanyl)-acetic acid mutilin 14-ester [Example 1]", "values": [{"measurement": "MIC", "setting": "[1]", "value": "0.125 micrograms per millillitre"}, {"measurement": "MIC", "setting": "[2]", "value": "0.5 micrograms per millillitre"}]}
